This assay deals with NR1/NR2A (Homo sapiens (Human), UniProt Q05586+Q12879). In words: FDSS Ca2+ influx inhibition assay in HEK293 cells expressing NR1/NR2A. The format is cell-based. Particulars: 3 μM glutamate, 3 μM glycine, 1 mM Ca2+. Summed up: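 Fluo-8-loaded HEK293 NR1/NR2A cells preincubated 10 min with compound at 10 μM final (0.1% DMSO) in Ca2+/Mg2+-free HBSS with 20 mM HEPES. Stimulated with 3 μM glutamate, 3 μM glycine, 1 mM Ca2+; FDSS recording for 3 min, end/baseline fluorescence ratio compared with MK801.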

[1] abbreviates: inhibition relative to MK801, read-out: NR2A IC50.

Molecules are shown by their SMILES. Like-named read-outs stand apart in the source and are kept apart here.

Chain of NR1/NR2A (Q12879 23-1464, other chains not shown): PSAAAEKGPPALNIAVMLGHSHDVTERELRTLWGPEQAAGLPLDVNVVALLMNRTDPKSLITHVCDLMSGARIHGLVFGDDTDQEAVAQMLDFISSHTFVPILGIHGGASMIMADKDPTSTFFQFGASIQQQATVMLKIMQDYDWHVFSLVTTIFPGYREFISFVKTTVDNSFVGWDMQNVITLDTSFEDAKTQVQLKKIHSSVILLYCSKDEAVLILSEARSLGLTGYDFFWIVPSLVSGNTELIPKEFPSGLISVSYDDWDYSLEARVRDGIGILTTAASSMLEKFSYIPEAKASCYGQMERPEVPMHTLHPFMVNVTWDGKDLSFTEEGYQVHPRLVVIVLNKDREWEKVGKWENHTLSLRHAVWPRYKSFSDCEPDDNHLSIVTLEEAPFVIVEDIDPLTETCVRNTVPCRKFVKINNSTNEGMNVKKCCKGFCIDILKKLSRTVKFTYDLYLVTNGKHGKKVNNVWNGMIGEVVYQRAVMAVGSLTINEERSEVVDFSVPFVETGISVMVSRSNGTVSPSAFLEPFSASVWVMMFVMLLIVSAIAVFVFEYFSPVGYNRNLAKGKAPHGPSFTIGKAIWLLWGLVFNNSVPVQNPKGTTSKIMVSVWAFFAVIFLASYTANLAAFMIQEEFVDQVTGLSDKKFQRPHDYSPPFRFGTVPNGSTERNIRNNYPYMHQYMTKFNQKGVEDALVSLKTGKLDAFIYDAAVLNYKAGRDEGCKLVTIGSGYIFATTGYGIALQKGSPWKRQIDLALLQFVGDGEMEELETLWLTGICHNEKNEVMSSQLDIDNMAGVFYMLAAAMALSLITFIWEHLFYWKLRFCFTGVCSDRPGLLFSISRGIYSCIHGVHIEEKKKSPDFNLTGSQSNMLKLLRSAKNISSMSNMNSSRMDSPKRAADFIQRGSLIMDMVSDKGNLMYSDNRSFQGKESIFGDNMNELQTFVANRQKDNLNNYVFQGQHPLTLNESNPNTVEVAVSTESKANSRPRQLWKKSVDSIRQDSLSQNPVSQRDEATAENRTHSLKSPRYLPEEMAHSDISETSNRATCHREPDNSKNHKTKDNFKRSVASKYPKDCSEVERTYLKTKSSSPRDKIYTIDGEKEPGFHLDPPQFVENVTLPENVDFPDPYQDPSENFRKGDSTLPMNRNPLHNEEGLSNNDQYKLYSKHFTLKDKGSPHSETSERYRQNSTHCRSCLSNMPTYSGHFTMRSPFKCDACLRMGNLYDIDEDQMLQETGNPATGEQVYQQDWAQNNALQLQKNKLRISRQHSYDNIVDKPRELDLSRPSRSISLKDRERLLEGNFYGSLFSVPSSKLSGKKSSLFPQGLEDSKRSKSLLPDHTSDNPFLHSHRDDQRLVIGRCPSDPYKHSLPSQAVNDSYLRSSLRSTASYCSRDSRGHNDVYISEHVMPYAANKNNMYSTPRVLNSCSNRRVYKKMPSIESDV

Consider `Cc1ncc(CNC(=O)c2ncc(CNS(=O)(=O)c3ccc(F)c(Cl)c3)cn2)s1` [5-(3-chloro-4-fluorobenzenesulfon-amidomethyl)-N-[(2-methyl-1,3-thiazol-5-yl)methyl]pyrimidine-2-carboxamide], for which the IC50 was 10 µM under setting [1] and above 10 µM (read-out: Binned Activity).

On to `Cn1ccnc1CNC(=O)c1cnc(CNS(=O)(=O)c2ccc(F)c(Cl)c2)cn1` [5-(3-chloro-4-fluorobenzenesulfon-amidomethyl)-N-[(1-methyl-1H-imidazol-2-yl)methyl]pyrazine-2-carboxamide], for which the IC50 reads like this: under setting [1], 10 µM; (read-out: Binned Activity) above 10 µM.

`Cn1cnc(CNC(=O)c2cnc(CNS(=O)(=O)c3ccc(F)c(Cl)c3)cn2)c1` [5-(3-chloro-4-fluorobenzenesulfon-amidomethyl)-N-[(1-methyl-1H-imidazol-4-yl)methyl]pyrazine-2-carboxamide]: the IC50 is, setting by setting: under setting [1], 10 µM; (read-out: Binned Activity) above 10 µM.

For the compound `Cc1ccc(CNC(=O)c2ccc(CNS(=O)(=O)c3ccc(F)c(Cl)c3)nc2)s1` [6-(3-chloro-4-fluorobenzenesulfon-amidomethyl)-N-[(5-methylthiophen-2-yl)methyl]pyridine-3-carboxamide], the IC50 runs as follows: under setting [1], 10 µM; (read-out: Binned Activity) above 10 µM.

Turning to `Cc1ncsc1CNC(=O)c1ccc(CNS(=O)(=O)c2ccc(F)c(Cl)c2)nc1` [6-(3-chloro-4-fluorobenzenesulfon-amidomethyl)-N-[(4-methyl-1,3-thiazol-5-yl)methyl]pyridine-3-carboxamide], the IC50 runs as follows: under setting [1], 10 µM; (read-out: Binned Activity) above 10 µM.

Consider `O=C(NCc1ncccn1)c1ccc(CNS(=O)(=O)c2ccc(F)c(Cl)c2)nc1` [6-(3-chloro-4-fluorobenzenesulfon-amidomethyl)-N-(pyrimidin-2-ylmethyl)pyridine-3-carboxamide], for which the IC50 was 10 µM under setting [1] and above 10 µM (read-out: Binned Activity).

With `Cc1ncc(CNC(=O)c2cnc(CNS(=O)(=O)c3cc(F)cc(F)c3)c(C)n2)s1` [5-(3,5-difluorobenzenesulfon-amidomethyl)-6-methyl-N-[(2-methyl-1,3-thiazol-5-yl)methyl]pyrazine-2-carboxamide], the IC50 (read-out: Binned Activity) is 0.1 to 1 µM.

In the case of `Cc1ncc(CNC(=O)c2cnc(CNS(=O)(=O)c3ccc(Cl)c(F)c3)c(C)n2)s1` [5-(4-chloro-3-fluorobenzenesulfon-amidomethyl)-6-methyl-N-[(2-methyl-1,3-thiazol-5-yl)methyl]pyrazine-2-carboxamide], the IC50 (read-out: Binned Activity) fell in the range of 1 to 10 µM.

`Cc1ncc(CNC(=O)c2cnc(CNC(=O)c3cccc(Cl)c3C)c(C)n2)s1` [5-{[(3-chloro-2-methylphenyl)formamido]methyl}-6-methyl-N-[(2-methyl-1,3-thiazol-5-yl)methyl]pyrazine-2-carboxamide]: the IC50 reads like this: under setting [1], 10 µM; (read-out: Binned Activity) above 10 µM.

Take `Cc1ncc(CNC(=O)c2cnc(CNC(=O)c3cccc(C#N)c3)c(C)n2)s1` [5-{[(3-cyanophenyl)formamido]methyl}-6-methyl-N-[(2-methyl-1,3-thiazol-5-yl)methyl]pyrazine-2-carboxamide]: the IC50 is, setting by setting: under setting [1], 10 µM; (read-out: Binned Activity) above 10 µM.

Turning to `O=C(NCc1cnco1)c1ccc(CNS(=O)(=O)c2ccc(F)c(Cl)c2)cn1` [5-(3-chloro-4-fluorobenzenesulfon-amidomethyl)-N-(1,3-oxazol-5-ylmethyl)pyridine-2-carboxamide], the IC50 (read-out: Binned Activity) lay in the range of 1 to 10 µM.

For `O=C(NCc1ccccn1)c1cnc(CNS(=O)(=O)c2ccc(F)c(Cl)c2)cn1` [5-(3-chloro-4-fluorobenzenesulfon-amidomethyl)-N-(pyridin-2-ylmethyl)pyrazine-2-carboxamide], the IC50 reads like this: under setting [1], 10 µM; (read-out: Binned Activity) above 10 µM.

Turning to `COc1ccc(CNC(=O)c2ccc(CNS(=O)(=O)c3ccc(F)c(Cl)c3)nc2)cc1` [6-(3-chloro-4-fluorobenzenesulfon-amidomethyl)-N-[(4-methoxyphenyl)methyl] pyridine-3-carboxamide], the IC50 under setting [1] is 10 µM and the IC50 (read-out: Binned Activity) is above 10 µM.
